Assays:
[1] = system: NEP enzyme extracted from porcine kidney; test: Degradation of Met-enkephalin incubated with NEP alone (without inhibitor); format: in vitro ADME; conditions: printed value is 1000 × k, Met-enkephalin 0.0413 mM, NEP 5.687 nM, Tris–HCl 50 mM pH 7.4, 37 °C, 0–120 min, RP-HPLC, mean ± SEM, triplicate
Protocol: (§1) The degradation studies were performed using the NEP enzyme extracted from porcine kidney, acquired from Merck (Warsaw, Poland). Solutions of Met-enkephalin, NEP and inhibitors were prepared by dissolving them in a Tris–HCl buffer (50 mM, pH 7.4). In investigated samples, the concentrations of Met-enkephalin, inhibitors and NEP were, respectively, 0.0413 mM, 0.156 mM and 5.687 nM. The reaction was initiated by addition of enzyme to a solution-containing Met-enkephalin and inhibitor. The samples consisting of the enzyme, Met-enkephalin and inhibitors were incubated over 0, 30, 60, 90, 120 min at 37 °C in a final volume of 300 μL. The reaction was stopped at a predetermined time by placing the tube on ice and acidifying with 30 μL of a 1 M aqueous HCl solution. The aliquots were centrifuged at 14,500 rpm for 20 min. The supernatants were filtered through Millipore Millex-GV syringe filters with 0.22 μm pores (Merck, Warsaw, Poland) and analysed by RP-HPLC on a Phenomenex Gemini-NX C18 column (5 μm, 4.6 mm × 150 mm) using a linear gradient of 3–50% of [B] for 8 min at a flow rate of 2.5 ml/min. Two solvent systems were used: 0.1% TFA in water [A] and 0.1% TFA in acetonitrile [B]. The rate constants of degradation (k) and degradation half-lives (t1/2) were calculated as described elsewhere (Kamysz et al. [2016]; Perlikowska et al. [2012]). All measurements were performed in triplicate. […]

NEP = test: as above; format: in vitro ADME, porcine; conditions: pig, NEP enzyme extracted from porcine kidney, Met-enkephalin 0.0413 mM, NEP 5.687 nM, Tris–HCl 50 mM pH 7.4, 37 °C, 0–120 min, RP-HPLC, mean ± SEM, triplicate, read-out: t1/2, half-life of Met-enkephalin incubated with NEP alone
Protocol: as §1

With `CSCC[C@H](NC(=O)[C@H](Cc1ccccc1)NC(=O)CNC(=O)CNC(=O)[C@@H](N)Cc1ccc(O)cc1)C(=O)O` [Met-enkephalin, Met-enkephalin (Tyr–Gly–Gly–Phe–Met)] the “1000 × k, degradation rate of Met-enkephalin incubated with NEP alone” value [1] was 25.3 ± 1.0 min⁻¹ and the half-life (NEP) was 27 ± 1 min.

Source: paper PMC6060874, “Alanine scan of sialorphin and its hybrids with opiorphin: synthesis, molecular modelling and effect on enkephalins degradation” (Amino Acids, 2018)
